Results published in PMC11501026, “L-Arginine and asymmetric dimethylarginine (ADMA) transport across the mouse blood-brain and blood-CSF barriers: Evidence of saturable transport at both interfaces and CNS to blood efflux” (PLOS ONE, 2024).
“And” between values parts separate entries of the source, which are not always exact repeats. Identical values can stand only once. Like-named read-outs stand apart in the source and are kept apart here.

How the values were obtained:
Assay type in all cases: in vivo, mouse
[1] = cross-inhibition, in situ perfusion: [^3H]-ADMA with 100 μM unlabelled L-arginine; details: male, Balb/c, mouse, brain homogenate, other: in situ brain perfusion, with 100 µM unlabelled L-arginine, [3H] ADMA + [14C] Sucrose + 100uM Arg, 10 mins, Balb/c ♂, 5ml/min; mean; read-out: uptake, homogenate
Procedure: (§1) Self-inhibition experiments were also performed. […] Cross-competition experiments were also performed.
(§2) The percentage change in the RTissue uptake values achieved in the absence or presence of an unlabelled inhibitor can be calculated by means of Eq 4.
(§3) %change=RTissue−RInhibition/RTissue×100 Eq 4
(§4) We define RInhibition as the RTissue uptake in the presence of an inhibitor in the artificial plasma.
(§5) A decrease in the uptake of radiolabelled solute in the presence of unlabelled inhibitor is indicative of a saturable influx transport system. Conversely, an increase in the uptake of radiolabelled solute in the presence of unlabelled inhibitor is indicative of a saturable efflux transport system.

[2] = system: [^3H]-ADMA transport across the blood-brain and blood-CSF barriers; assay: as above; details: [3H] ADMA + [14C] Sucrose + 100uM Arg, 10 mins, Balb/c ♂, 5ml/min; individual mice
Procedure: as §1, §2, §3, §4, §5

[3] = system: [3H]-ADMA transport across the blood-brain and blood-CSF barriers; assay: as above; details: male, Balb/c, mouse, other: in situ brain perfusion, with 100 µM unlabelled L-arginine, [3H] ADMA + [14C] Sucrose + 100uM Arg, 10 mins, Balb/c ♂, 5ml/min
Procedure: as §1, §2, §3, §4, §5

[4] = capillary depletion analysis after in situ brain perfusion; set-up: [3H] ADMA and [14C] Sucrose uptake, homogenate / Difference (ADMA minus Sucrose), homogenate / [3H] ADMA and [14C] Sucrose uptake, supernatant / Difference (ADMA minus Sucrose), supernatant / uptake, homogenate / uptake, supernatant: unit not given here; details: for Kp at 30 min: other: in situ brain perfusion with artificial plasma
Procedure: The microvasculature within a sample of brain tissue can be separated from the brain parenchyma using capillary depletion analysis. Following perfusion, the remaining brain tissue after microdissection of the regions described above (typically 200–300 mg) underwent capillary depletion following a method modified for mouse. […]

[5] = system: [3H]-ADMA transport across the blood-brain and blood-CSF barriers; assay: self-inhibition, in situ perfusion: [^3H]-ADMA with 100 μM unlabelled ADMA; details: male, Balb/c, mouse, other: in situ brain perfusion, with unlabelled ADMA 100 µM, [3H] ADMA + [14C] Sucrose + 100uM un-labelled ADMA, 10 mins, Balb/c ♂, 5ml/min, mean
Procedure: as §1, §2, §3, §4, §5

In the case of `OC[C@H]1O[C@@](CO)(O[C@H]2O[C@H](CO)[C@@H](O)[C@H](O)[C@H]2O)[C@@H](O)[C@@H]1O` [[^14C]-sucrose, reference compound], the Kp at 10 min, 62.5 nM [1] is reported as 0.0365, the “uptake, pellet” value [2] is reported as 0.001402 and the Kp at 10 min, 62.5 nM ([3]; choroid plexus, individual mice, read-out: uptake into choroid plexus) is reported as 0.14. The Kp at 10 min, 62.5 nM ([3]; choroid plexus, mean, read-out: uptake into choroid plexus) was 0.145, the Kp at 10 min, 62.5 nM ([3]; hypothalamus, mean, read-out: uptake into hypothalamus) was 0.0327 and the Kp at 10 min, 62.5 nM ([3]; pituitary gland, mean, read-out: uptake into pituitary gland) was 0.113. The Kp at 10 min, 62.5 nM ([3]; pons, mean, read-out: uptake into pons) was 0.0462, the “[3H] ADMA and [14C] Sucrose uptake, supernatant” value ([4]; 2.5 mins, Balb/c ♂, 5ml/min, individual mouse) was 0.005063 and the “uptake, pellet” value ([4]; [3H] ADMA + [14C] Sucrose, 30 mins, Balb/c ♂, 5ml/min, individual mice) was 0.004118 and 0.004644 and 0.005073. The Kp at 20 min, 62.5 nM ([4]; male, BALB/c, mouse, capillary depletion pellet (endothelial cell-enriched), [3H] ADMA and [14C] Sucrose uptake, pellet, 20 mins, 5ml/min, mean) was 0.00274, the Kp at 30 min ([4]; male, BALB/c, mouse, capillary depletion pellet (endothelial cell-enriched), pellet: [14C] Sucrose, 30 mins, Balb/c ♂, 5ml/min, single mouse) was 0.00943 and the Kp at […] ([4]; male, BALB/c, mouse, capillary depletion supernatant (brain parenchyma), [3H] ADMA and [14C] Sucrose uptake, supernatant, 2.5 mins, 5ml/min, mean) was 0.0098. The Kp at […] ([4]; male, BALB/c, mouse, endothelial cell-enriched pellet (capillary depletion), [3H] ADMA and [14C] Sucrose uptake, pellet, 2.5 mins, 5ml/min, mean) was 0.00237, the Kp at 30 min, 62.5 nM ([4]; male, BALB/c, mouse, endothelial cell-enriched pellet (capillary depletion), other: in situ brain perfusion, [3H] ADMA + [14C] Sucrose, 30 mins, Balb/c ♂, 5ml/min, individual mice, read-out: uptake, pellet) was 0.00308 and the Kp at 30 min, 62.5 nM ([4]; male, BALB/c, mouse, endothelial cell-enriched pellet (capillary depletion), other: in situ brain perfusion, [3H] ADMA + [14C] Sucrose, 30 mins, Balb/c ♂, 5ml/min, mean, read-out: uptake, pellet) was 0.00455. It also gave a Kp at […] ([4]; male, BALB/c, mouse, endothelial cell-enriched pellet (capillary depletion), pellet, 2.5 mins, uncorrected, given as fraction, read-out: tissue or CSF to plasma ratio (mean)) of 0.00218, a Kp at 10 min ([4]; male, BALB/c, mouse, endothelial cell-enriched pellet (capillary depletion), pellet, 10 mins, uncorrected, given as fraction, read-out: tissue or CSF to plasma ratio (mean)) of 0.00461 and a Kp at 30 min ([4]; male, BALB/c, mouse, whole-brain homogenate (capillary depletion), homogenate: [14C] Sucrose, 30 mins, Balb/c ♂, 5ml/min, mean) of 0.0653. It also gave a Kp at 30 min, 62.5 nM ([4]; male, BALB/c, mouse, whole-brain homogenate (capillary depletion), other: in situ brain perfusion, [3H] ADMA + [14C] Sucrose, 30 mins, Balb/c ♂, 5ml/min, mean, read-out: uptake, homogenate) of 0.0336, a Kp at 10 min, 62.5 nM ([4]; male, BALB/c, mouse, whole-brain homogenate (capillary depletion), other: in situ brain perfusion, [3H] ADMA and [14C] Sucrose uptake, homogenate, CONTROL, 10 mins, Balb/c ♂, 5ml/min, mean) of 0.0971 and a Kp at 10 min ([4]; male, Balb/c, mouse, endothelial cell-enriched pellet after capillary depletion, other: in situ brain perfusion, with unlabelled ADMA 3 µM, Arginine / Sucrose uptake, pellet, mean, [3H] Arginine + [14C] Sucrose + 3 uM ADMA, 10 mins, Balb/c ♂, 5ml/min, mean) of 0.00326. It also gave a Kp at 10 min ([4]; male, Balb/c, mouse, endothelial cell-enriched pellet after capillary depletion, other: in situ brain perfusion, with unlabelled ADMA 10 µM, Arginine / Sucrose uptake, pellet, mean, [3H] Arginine + [14C] Sucrose + 10 uM ADMA, 10 mins, Balb/c ♂, 5ml/min, mean) of 0.00425, a Kp at 10 min ([4]; male, Balb/c, mouse, endothelial cell-enriched pellet, other: in situ brain perfusion, with unlabelled ADMA 100 µM, Arginine / Sucrose uptake, pellet, mean, [3H] Arginine + [14C] Sucrose + 100µM un-labelled ADMA, 10 mins, Balb/c ♂, 5ml/min, mean) of 0.00383 and a Kp at 10 min ([4]; male, Balb/c, mouse, supernatant (brain parenchyma) after capillary depletion, other: in situ brain perfusion, with unlabelled ADMA 3 µM, Arginine / Sucrose uptake, supernatant, mean, [3H] Arginine + [14C] Sucrose + 3 uM ADMA, 10 mins, Balb/c ♂, 5ml/min, mean) of 0.0159. The Kp at 10 min ([4]; male, Balb/c, mouse, supernatant (brain parenchyma), other: in situ brain perfusion, with unlabelled ADMA 100 µM, Arginine / Sucrose uptake, supernatant, [3H] Arginine + [14C] Sucrose + 100µM un-labelled ADMA, 10 mins, Balb/c ♂, 5ml/min, single mice) was 0.0158, the Kp at 10 min, 62.5 nM ([5]; CSF, read-out: uptake into CSF) was 0.138 and the Kp at 10 min, 62.5 nM ([5]; pituitary gland, read-out: uptake into pituitary gland) was 0.0955.
